Results published in patent US20240239759A1, “ISOXAZOLINE COMPOSITIONS AND THEIR USE AS ANTIPARASITICS” (Intervet Inc., priority 2007, published 2024).
Like-named read-outs stand apart in the source and are kept apart here.

Legend:
[1] = test system: cat fleas (Ctenocephalides felis); experiment: Efficacy of various isoxazolines against cat fleas on mice (Example 3); format: in vivo; settings: Ctenocephalides felis, po, read-out: Flea inhibition relative to negative control
Method: In this experiment, mice were randomly assigned to a treatment group or a negative control (untreated) group. Each group consisted of three mice. The mice in the treatment groups were orally administered 20 mg/kg bodyweight of various isoxazolines dissolved in 7% DMF-premix and 93% purified water (aqua ad injectabilia). The application volume of these treatments was 0.01 mL/g bodyweight. One hour after treatment, each mouse was sedated and generally infested (whole body) with 30 vital, adult fleas (C. felis). To achieve this, the sedated mice were placed into an infestation-jar, and the fleas were placed directly onto the fur. After approximately 30 minutes of feeding, fleas were recovered from the mice. Assessments for inhibition and mortality were conducted 1 hr, 24 hr, and 48 hr after each infestation. The efficacy was calculated as the percentage of inhibited fleas in the treatment groups relative to the negative control group.

[2] = test system: brown dog ticks (Rhipicephalus sanguineus) nymphs; experiment: Efficacy of various isoxazolines against brown dog ticks on Guinea pigs (Example 4); format: in vivo; settings: po
Method: In this experiment, Guinea pigs were randomly assigned to a treatment group or a negative control (untreated) group. Each group consisted of three Guinea pigs. On Day Zero, each Guinea pig was infested with 100 vital nymphs of R. sanguineus. On Day 1, the Guinea pigs in the treatment groups were orally administered 10 mg/kg bodyweight of various isoxazolines dissolved in 7% DMF-premix and 93% purified water (aqua ad injectabilia). Engorged, detached nymphs were counted (eN) from Day 4 to […] on engorged nymphs (%) (eN control group—EeN treatment group)×100 eN control group
In addition, collected ticks were assessed for molting into the next stage.

[3] = test system: cat fleas (Ctenocephalides felis); experiment: Adult fleas fed on artificial membranes with spiked blood (Example 1); settings: 48 hr continuous feeding
Method: Adult fleas (20-30) were fed on artificial membranes with blood spiked with Compound 10-1, Compound 11-1, or a positive control (fipronil) at a concentration of 100, 10, or 1 ppm. Flea efficacy was assessed after 48 hr of continuous feeding by comparing the number of killed and damaged fleas with the number of fed fleas. Flea efficacy was 100% for Compound 10-1, Compound 11-1, and fipronil at 100, 10, and 1 ppm.

[4] = 1 h, mice, oral 20 mg/kg, infested 1 hr after treatment, 1 hr after infestation
[5] = 24 h, mice, oral 20 mg/kg, infested 1 hr after treatment, 24 hr after infestation
[6] = 48 h, mice, oral 20 mg/kg, infested 1 hr after treatment, 48 hr after infestation
[7] = Guinea pigs, oral 10 mg/kg on Day 1, infested Day Zero, engorged detached nymphs counted from Day 4, read-out: Inhibition (efficacy on engorged nymphs)

SMILES | pest or weed control at 20 mg/kg [1, 4] [%] | pest or weed control at 20 mg/kg [1, 5] [%] | pest or weed control at 20 mg/kg [1, 6] [%] | pest or weed control at 10 mg/kg [2, 7] [%] | other results
COC(=O)N(C(=O)c1ccc(C2=NOC(c3cc(Cl)cc(Cl)c3)(C(F)(F)F)C2)cc1C)N(C)c1ccccc1 (stereo not drawn) [Compound 5-47] | 0 | 95.6 | 96.7 | 58.5 | –
COCN(C(=O)c1ccc(C2=NOC(c3cc(Cl)cc(Cl)c3)(C(F)(F)F)C2)cc1C)c1ncc(C#N)cn1 (stereo not drawn) [Compound 5-46] | 0 | 85.6 | 86.7 | 26.4 | –
CO/N=C\NC(=O)c1ccc(C2=NOC(c3cc(Cl)cc(Cl)c3)(C(F)(F)F)C2)cc1C (stereo not drawn) [Compound 5-43] | – | 92.2 | 92.2 | 0 | –
Cc1cc(C2=NOC(c3cc(Cl)cc(Cl)c3)(C(F)(F)F)C2)ccc1C(=O)N[C@@H]1CCOC1 (stereo partly drawn) [Compound 5-68] | 75.5 | 91.1 | 95.6 | 100 | –
Cc1cc(C2=NOC(c3cc(Cl)cc(Cl)c3)(C(F)(F)F)C2)ccc1C(=O)NCc1cscn1 (stereo not drawn) [Compound 5-66] | 77.8 | 100 | 100 | 100 | –
CC(=O)N(C(=O)c1ccc(C2=NOC(c3cc(Cl)cc(Cl)c3)(C(F)(F)F)C2)cc1C)c1ncc(Cl)cn1 (stereo not drawn) [Compound 5-60] | 26.6 | 96.7 | 96.7 | 78.9 | –
Cc1cc(C2=NOC(c3cc(Cl)cc(Cl)c3)(C(F)(F)F)C2)ccc1C(=O)NN(C)c1ccccc1 (stereo not drawn) [Compound 5-52] | 0 | 96.7 | 96.7 | 93.4 | –
NC(=O)NC(=O)c1ccc(C2=NOC(c3cc(Cl)cc(Cl)c3)(C(F)(F)F)C2)cc1I (stereo not drawn) [Compound 5-59] | 18.8 | 94.4 | 95.6 | 96.3 | –
CCC(=O)N(Cc1cscn1)C(=O)c1ccc(C2=NOC(c3cc(Cl)cc(Cl)c3)(C(F)(F)F)C2)cc1C (stereo not drawn) [Compound 5-58] | 11.1 | 100 | 100 | 100 | –
CCON=CNC(=O)c1ccc(C2=NOC(c3cc(Cl)cc(Cl)c3)(C(F)(F)F)C2)cc1I (stereo not drawn) [Compound 5-44] | 0 | 75.6 | 78.9 | 15.6 | –
COC(=O)NC(=O)c1ccc(C2=NOC(c3cc(Br)cc(Br)c3)(C(F)(F)F)C2)cc1C (stereo not drawn) [Compound 5-14] | – | – | – | – | pest or weed control at 20 mg/kg ([1]; 1 h): 4.4%; pest or weed control at 20 mg/kg ([1]; 24 h): 13.3%; pest or weed control at 20 mg/kg ([1]; 48 h): 22.2%; pest or weed control at 10 mg/kg ([2]; read-out: Inhibition (efficacy on engorged nymphs)): 22.4%
Cc1cc(C2=NOC(c3cc(Cl)cc(Cl)c3)(C(F)(F)F)C2)ccc1C(=O)Nc1ncc(C#N)cn1 (stereo not drawn) [Compound 5-45] | 0 | 92.2 | 93.3 | 0 | –
COC(=O)N(C(=O)c1ccc(C2=NOC(c3cc(Cl)cc(Cl)c3)(C(F)(F)F)C2)cc1C)c1cnc(Cl)cn1 (stereo not drawn) [Compound 5-17] | 0 | 36.7 | 41.1 | – | –
CON=CNC(=O)c1ccc(C2=NOC(c3cc(Cl)cc(Cl)c3)(C(F)(F)F)C2)cc1Cl (stereo not drawn) [Compound 5-51] | 0 | 97.8 | 97.8 | 52.1 | –
CCOCN(C(=O)OC)C(=O)c1ccc(C2=NOC(c3cc(Cl)cc(Cl)c3)(C(F)(F)F)C2)cc1C (stereo not drawn) [Compound 5-65] | 58.8 | 92.2 | 93.3 | 79.2 | –
CO/N=C\NC(=O)c1ccc(C2=NOC(c3cc(Cl)cc(Cl)c3)(C(F)(F)F)C2)cc1C (stereo not drawn) [Compound 10-1, (Z)-4-[5-(3,5-dichlorophenyl)-5-trifluoromethyl-4,5-dihydroisoxazol-3-yl]-N-[(methoxyimino)methyl]-2-methylbenzamide] | – | – | – | – | Flea efficacy ([3]; blood spiked at 1 ppm): 100%; Flea efficacy ([3]; blood spiked at 10 ppm): 100%; Flea efficacy ([3]; blood spiked at 100 ppm): 100%
CCN(C(=O)c1ccc(C2=NOC(c3cc(Cl)cc(Cl)c3)(C(F)(F)F)C2)cc1C)c1ncc(Cl)cn1 (stereo not drawn) [Compound 5-21] | 0 | 75.6 | 77.8 | – | –
O=C(CNC(=O)c1ccc(C2=NOC(c3cc(Cl)c(Cl)c(C(F)(F)F)c3)(C(F)(F)F)C2)cc1)NCC(F)(F)F (stereo not drawn) [Compound 5-39] | 13.3 | 99 | 99 | – | –
Cc1cc(C2=NOC(CCl)(c3cc(Cl)cc(Cl)c3)C2)ccc1C(=O)NCc1ccccn1 (stereo not drawn) [Compound 5-13] | 16.7 | 18.9 | 18.9 | – | –
Cc1cc(C2=NOC(c3cc(Cl)c(F)c(C(F)(F)F)c3)(C(F)(F)F)C2)ccc1C(=O)NCC(=O)NCC(F)(F)F (stereo not drawn) [Compound 5-41] | 0 | 94.3 | 95.6 | – | –
CCOCN(C(=O)OC)C(=O)c1ccc(C2=NOC(c3cc(Cl)cc(Cl)c3)(C(F)(F)F)C2)cc1I (stereo not drawn) [Compound 5-56] | 0 | 87.8 | 88.9 | 76 | –
CCO/C(N)=N\C(=O)c1ccc(C2=NOC(c3cc(Br)cc(Br)c3)(C(F)(F)F)C2)cc1C (stereo not drawn) [Compound 5-37] | 7.7 | 99 | 100 | – | –
CO/N=C\NC(=O)c1ccc(C2=NOC(c3cc(Cl)cc(Cl)c3)(C(F)(F)F)C2)cc1I (stereo not drawn) [Compound 5-62] | 10 | 81.1 | 81.1 | 88.5 | –
Cc1cc(C2=NO[C@](c3cc(Cl)cc(Cl)c3)(C(F)(F)F)C2)ccc1C(=O)NCC(=O)NCC(F)(F)F [Compound 11-1R] | 0 | 0 | 0 | – | –
COC(=O)N(C(=O)c1ccc(C2=NOC(c3cc(Cl)cc(Cl)c3)(C(F)(F)F)C2)cc1C)c1ncc(Cl)cn1 (stereo not drawn) [Compound 5-48] | – | 91.1 | 91.1 | – | –
COCN(C(=O)OC)C(=O)c1ccc(C2=NOC(c3cc(Cl)cc(Cl)c3)(C(F)(F)F)C2)cc1C (stereo not drawn) [Compound 5-63] | 30 | 95.6 | 98.9 | 85.3 | –
CC(=O)N(C(=O)c1ccc(C2=NOC(c3cc(Cl)cc(Cl)c3)(C(F)(F)F)C2)cc1C)c1ncc(Br)cn1 (stereo not drawn) [Compound 5-22] | 0 | 82.2 | 83.3 | – | –
